One series has as its system dd, male mice. The class given is in vivo. Particulars: mice, mortality 7 days after administration. The protocol:
Groups each consisting of 3 dd, male mice having body weights of 20±1 g were used, and the compound of the present invention was administered orally (po: 300 mg/kg) or intraperitoneally (ip: 100 mg/kg).

The test system of another series is Rat carageenin paw edema. Nature of the series: Carageenin paw edema test (antiinflammatory activity). The class given is in vivo, Wistar male rats. Particulars: average value in one group of 3 rats, 100 mg/kg oral administration. The protocol:
Antiinflammatory activity was examined according to Rat carageenin paw edema [J. Pathol. 104, 15-29 (1971)], Groups each consisting of three Wistar male rats weighing 150 g were used. The test compound was suspended in 0.3% aqueous CMC solution and the suspension was given orally. Sixty minutes later, 0.1 ml of 0.1% carageenin was subcutaneously injected in a hind paw to form carageenin paw edema.
The volume of paw was measured before the administration and 3 hours after the administration of carageenin with plethysmometer.
The ratio of the volume 3 hours after the administration to that before the administration of carageenin was calculated and each ratio is compared with the ratio of control group (0.3% CMC was administered) to give the edema inhibiting percentage.

The test system of series [1] is homologous PCA (passive cutaneous anaphlaxis) of rats. Nature of the series: Homologous PCA (passive cutaneous anaphylaxis) test of rats for 48 hours, oral (antiallergic activity). Type of series: in vivo, Wistar male rats. The conditions noted are these: Rattus norvegicus; for minimal effective dose: minimum dosage with positive case in at least one of three rats, read-out: MED (minimum effective dosage), PCA inhibition; for responders at 1 mg/kg / responders at 10 mg/kg / responders at 100 mg/kg / responders at 0.1 mg/kg: po, positive = inhibition rate 50% or higher, read-out: Number of positive zooids in one group of 3 zooids (converted); for responders at 1 mg/kg: dosage 1 mg/kg; for responders at 10 mg/kg: dosage 10 mg/kg; for responders at 100 mg/kg: dosage 100 mg/kg; for responders at 0.1 mg/kg: dosage 0.1 mg/kg. Here is the method: Antiallergic activity was investigated by a homologous PCA (passive cutaneous anaphlaxis) of rats for 48 hours, where Wistar male rats having body weights of 180 to 220 g were used for sampling of antiserum and Wistar male rats having body weights of 120 to 140 g were used for the PCA test.
Anti-egg white albumin (EWA) rat serum was prepared according to Stotland and Share's method [Canad. J. Physiol. Pharmacol. 52, 1114 (1974)]. That is, 1 mg of EWA was mixed with 20 mg of aluminum hydroxide gel and 0.5 ml of mixed vaccine of pertussis, diphtheria and tetanus, and the mixture was subcutaneously administered in four portions into rat's footpad. After 14 days, blood was sampled from the carotid artery, and the serum was separated from the sampled blood, and preserved under freezing at -80° C. The potency of the antiserumin in the homologous PCA for 48 hours was 1:32.
Groups each consisting of 3 rats were used, and 0.05 ml of anti-EWA rat serum diluted with a physiological saline solution to 8 times as much was incutaneously injected each at two positions of depilated back to make the animals passively sensitised. After 47 hours, the compound of the present invention, or its solution (physiological saline solution or CMC solution) was orally administered. One hour thereafter, 0.5 ml/100 g of 1% Evan's blue physiological saline solution containing 2 mg of the antigen EWA was administered into the tail vein, and 30 minutes thereafter, the animals were sacrificed by exsanguination. Then, the skins were stripped and the amount of leaked pigment at the blue-dyed parts was measured according to the Katayama et al method [Microbiol. Immunol. 22, 89 (1978)]. That is, the blue-dyed parts were cut out by scissors, and placed in test tubes containing 1 ml of 1N KOH and incubated at 37° C. for 24 hours. Then, 9 ml of a mixture of 0.6N phosphoric acid and acetone (5:13) was added thereto, and the mixture was shaked and centrifuged at 2,500 rpm for 10 minutes. Absorbancy of the supernatant at […] was measured, and the amount of leaked pigment was quantitatively determined by the calibration curve prepared in advance. An average of measurements at the two position was made a value for one zooid, and inhibition rate for the individual zooid was calculated by the following formula: [formula]

Each structure is given as a SMILES string.

As for `CN(C)CCN=C1c2ccccc2COc2ccc(CC(=O)O)cc21` [Compound 37, 11-(2-Dimethylaminoethyl)imino-6,11-dihydrodibenz[b,e]oxepin-2-acetic acid], in the series with dd, male mice, the “Acute toxicity (MLD), ip” value is reported as > 100 mg/kg and the “Acute toxicity (MLD), po” value is > 300 mg/kg. Also, the “Carageenin paw edema inhibiting percentage” value in the series with Rat carageenin paw edema is 51.6%. Moreover, in series [1], the minimal effective dose was found to be 10 mg/kg, the responders at 1 mg/kg is 0%, the responders at 10 mg/kg was 100% and the responders at 100 mg/kg was 100%.

As for `CCN(CC)CCN=C1c2ccccc2COc2ccc(CC(=O)O)cc21` [Compound 39, 11-(2-Diethylaminoethyl)imino-6,11-dihydrodibenz[b,e]oxepin-2-acetic acid], in the series with dd, male mice, the “Acute toxicity (MLD), ip” value is on record as > 100 mg/kg and the “Acute toxicity (MLD), po” value is given as > 300 mg/kg. For the same compound, in the series with Rat carageenin paw edema, the “Carageenin paw edema inhibiting percentage” value is 50.2%. Moreover, in series [1], the minimal effective dose came to 1 mg/kg, the responders at 0.1 mg/kg was 0%, the responders at 1 mg/kg was 100% and the responders at 10 mg/kg is 66.7%. The responders at 100 mg/kg in series [1] is 100%.

For the compound `CC(C(=O)O)c1ccc2c(c1)C(=NCCN(C)C)c1ccccc1CO2` (stereo not shown) [Compound 45, 2-[11-(2-Dimethylaminoethyl)imino-6,11-dihydrodibenz[b,e]oxepin-2-yl]-propionic acid], in the series on dd, male mice, the “Acute toxicity (MLD), ip” value is given as > 100 mg/kg and the “Acute toxicity (MLD), po” value is > 300 mg/kg. In the series with Rat carageenin paw edema, the “Carageenin paw edema inhibiting percentage” value is listed as 63.1%. Also, in series [1], the minimal effective dose is 1 mg/kg, the responders at 0.1 mg/kg is 0%, the responders at 1 mg/kg was 66.7% and the responders at 10 mg/kg was 100%. Moreover, in series [1], the responders at 100 mg/kg was 100%.

For the compound `CN(C)CCCN=C1c2ccccc2COc2ccc(CC(=O)O)cc21` [Compound 41, 11-(3-Dimethylaminopropyl)imino-6,11-dihydrodibenz[b,e]oxepin-2-acetic acid], in the series on dd, male mice, the “Acute toxicity (MLD), ip” value was > 100 mg/kg and the “Acute toxicity (MLD), po” value was > 300 mg/kg. Moreover, in the series on Rat carageenin paw edema, the “Carageenin paw edema inhibiting percentage” value is recorded as 38.7%. Besides, in series [1], the minimal effective dose worked out at 1 mg/kg, the responders at 0.1 mg/kg was 0%, the responders at 1 mg/kg was 33.3% and the responders at 10 mg/kg was 66.7%. In addition, the responders at 100 mg/kg in series [1] was 100%.

Values taken from patent US5116863A, “Dibenz[b,e]oxepin derivative and pharmaceutical compositions thereof” (Kyowa Hakko Kogyo Co., Ltd., priority 1986, dated 1992).
